Reference: ChEMBL document CHEMBL3865792, “Antioxidant and antitumor activity of trolox, trolox succinate, and α-tocopheryl succinate conjugates with nitroxides” (Eur J Med Chem, 2016)

Tests used:
[1] = Cytotoxicity against human U937 cells assessed as reduction in cell viability after 72 hrs by MTT assay; type: functional, cell-based; conditions: U-937, 72 h
[2] = Cytotoxicity against human RPMI8226 cells assessed as reduction in cell viability after 72 hrs by MTT assay; type: functional, cell-based; conditions: RPMI-8226, 72 h
[3] = test system: Salmonella enterica subsp. enterica serovar Typhimurium; experiment: Antioxidant activity in Salmonella typhimurium TA102 harboring […] mutant assessed as inhibition of t-BuO2H-dependant mutant formation at 0.3 uM preincubated with compound followed by t-BuO2H addition after 48 hrs by Ames test; type: functional
[4] = Cytotoxicity against mouse LMTK cells assessed as reduction in cell viability after 72 hrs by MTT assay; type: toxicity
[5] = Cytotoxicity against human CEM13 cells assessed as reduction in cell viability at 300 uM after 72 hrs by MTT assay; type: functional; conditions: CEM13, 72 h
[6] = Ratio of IC50 for human MCF7 cells to concentration causing antioxidant activity in Salmonella typhimurium TA102 harboring […] mutant; type: functional
[7] = test system: Salmonella enterica subsp. enterica serovar Typhimurium; experiment: Antioxidant activity in Salmonella typhimurium TA102 harboring […] mutant assessed as inhibition of t-BuO2H-dependant mutant formation at 30 uM preincubated with compound followed by t-BuO2H addition after 48 hrs by Ames test; type: functional
[8] = Cytotoxicity against human CEM13 cells assessed as reduction in cell viability after 72 hrs by MTT assay; type: functional, cell-based; conditions: CEM13, 72 h
[9] = Ratio of IC50 for human CEM13 cells to concentration causing antioxidant activity in Salmonella typhimurium TA102 harboring […] mutant; type: functional
[10] = Genotoxicity in Escherichia coli PQ37 expressing lacZ gene assessed as ratio of inducible beta-galactosidase activity to alkaline phosphatase activity at 30 mM after 2 hrs by SOS-chromotest relative to control; type: toxicity; conditions: Escherichia coli PQ37 cells expressing lacZ gene, read-out: FC
Salmonella typhimurium = experiment: Genotoxicity in Salmonella typhimurium TA102 harboring […] mutant assessed as frequency of reversion from histidine auxotrophy to prototrophy at 30 mM after 48 hrs by Ames test (reference value: 209 +/- 10 No _unit); type: toxicity, organism-based; conditions: salmonella enterica subsp. enterica serovar typhimurium, 30000 µM
[11] = Cytotoxicity against human MT4 cells assessed as reduction in cell viability after 72 hrs by MTT assay; type: functional, cell-based; conditions: MT4, 72 h
[12] = Cytotoxicity against human MCF7 cells assessed as reduction in cell viability after 72 hrs by MTT assay; type: functional, cell-based; conditions: MCF7, 72 h
[13] = Ratio of IC50 for human MT4 cells to concentration causing antioxidant activity in Salmonella typhimurium TA102 harboring […] mutant; type: functional
[14] = test system: Salmonella enterica subsp. enterica serovar Typhimurium; experiment: Antioxidant activity in Salmonella typhimurium TA102 harboring […] mutant assessed as inhibition of t-BuO2H-dependant mutant formation at 3 uM preincubated with compound followed by t-BuO2H addition after 48 hrs by Ames test; type: functional
[15] = Ratio of IC50 for human RPMI8226 cells to concentration causing antioxidant activity in Salmonella typhimurium TA102 harboring […] mutant; type: functional, RPMI-8226
[16] = Cytotoxicity against human HepG2 cells assessed as reduction in cell viability after 72 hrs by MTT assay; type: functional, cell-based; conditions: HepG2, 72 h
[17] = Cytotoxicity against mouse LMTK cells assessed as reduction in cell viability at 300 uM after 72 hrs by MTT assay; type: toxicity; conditions: read-out: INH
[18] = Ratio of IC50 for human HEPG2 cells to concentration causing antioxidant activity in Salmonella typhimurium TA102 harboring […] mutant; type: functional
[19] = Cytotoxicity against hamster AG17-1 cells assessed as reduction in cell viability after 72 hrs by MTT assay; type: toxicity, cell-based, Cricetulus griseus; conditions: Chinese hamster
[20] = Ratio of IC50 for human U937 cells to concentration causing antioxidant activity in Salmonella typhimurium TA102 harboring […] mutant; type: functional, U-937
[21] = Cytotoxicity against human MCF7 cells assessed as reduction in cell viability at 300 uM after 72 hrs by MTT assay; type: functional; conditions: MCF7, 72 h
[22] = Cytotoxicity against hamster AG17-1 cells assessed as reduction in cell viability at 300 uM after 72 hrs by MTT assay; type: toxicity, cell-based, Cricetulus griseus; conditions: Chinese hamster, read-out: INH
[23] = Cytotoxicity against human HepG2 cells assessed as reduction in cell viability at 300 uM after 72 hrs by MTT assay; type: functional; conditions: HepG2, 72 h
[24] = Cytotoxicity against human RPMI8226 cells assessed as reduction in cell viability at 300 uM after 72 hrs by MTT assay; type: functional; conditions: RPMI-8226, 72 h

Structure (SMILES)	IC50 [1]	IC50 [2]	inhibition [3]	IC50 at 72 h [4]	Ratio [6]	inhibition [7]	IC50 [8]	Ratio [9]	fold induction at 2 h, 30000 µM [10]	Activity (Salmonella typhimurium)	IC50 [11]	IC50 [12]	Ratio [13]	inhibition [14]	Ratio [15]	IC50 [16]	cytotoxicity at 72 h, 300 µM [17]	Ratio [18]	IC50 at 72 h [19]	Ratio [20]	further results
Cc1c(C)c2c(c(C)c1O)CCC(C)(C(=O)NC1CC(C)(C)N([O])C1(C)C)O2 (centres undefined)	98 µM	58 µM	55.2%	> 300 µM	100 - 1000	62%	> 300 µM	100 - 1000	1.2	221	144 µM	58 µM	100 - 1000	57.6%	100 - 1000	145 µM	32%	100 - 1000	194 µM	100 - 1000	inhibition at 300 µM [5]: 45%
Cc1c(C)c2c(c(C)c1OC(=O)CCC(=O)NCC1CC(C)(C)N([O])C1(C)C)CCC(C)(C(=O)NCC1CC(C)(C)N([O])C1(C)C)O2 (centres undefined)	61 µM	70 µM	13%	> 300 µM	100 - 1000	20%	107 µM	100 - 1000	1.2	209	114 µM	> 300 µM	100 - 1000	23%	100 - 1000	176 µM	10%	100 - 1000	50 µM	100 - 1000	inhibition at 300 µM [21]: 32%
Cc1c(C)c2c(c(C)c1OC(=O)CCC(=O)NC1CC(C)(C)N([O])C(C)(C)C1)CC[C@@](C)(CCC[C@H](C)CCC[C@H](C)CCCC(C)C)O2	76 µM	> 300 µM	24%	> 300 µM	100 - 1000	20%	146 µM	100 - 1000	1.1	222	53 µM	> 300 µM	100 - 1000	29%	100 - 1000	> 300 µM	19%	100 - 1000	> 300 µM	100 - 1000	cytotoxicity at 72 h, 300 µM [22]: 30%; inhibition at 300 µM [23]: 5%; inhibition at 300 µM [21]: 28%; inhibition at 300 µM [24]: 13%
Cc1c(C)c2c(c(C)c1OC(=O)CCC(=O)NC1CC(C)(C)N([O])C(C)(C)C1)CCC(C)(C(=O)NC1CC(C)(C)N([O])C(C)(C)C1)O2 (centres undefined)	72 µM	68 µM	7%	133 µM	100 - 1000	25%	> 300 µM	100 - 1000	1	203	41 µM	62 µM	100 - 1000	25%	100 - 1000	42 µM		100 - 1000	54 µM	100 - 1000	inhibition at 300 µM [5]: 33%
Cc1c(C)c2c(c(C)c1OC(=O)CCC(=O)NC1CC(C)(C)N([O])C1(C)C)CCC(C)(C(=O)NC1CC(C)(C)N([O])C1(C)C)O2 (centres undefined)	75 µM	> 300 µM	22%	> 300 µM	100 - 1000	13%	> 300 µM	100 - 1000	1.1	229	207 µM	86 µM	100 - 1000	20%	100 - 1000	> 300 µM	10%	100 - 1000	166 µM	100 - 1000	inhibition at 300 µM [5]: 34%; inhibition at 300 µM [23]: 15%; inhibition at 300 µM [24]: 0%
